Test systems include HCT-15 colon; HOP-92 NSCLC; IGROV1 ovarian; M14 melanoma; NCI-H522 lung; OVCAR-3 ovarian; OVCAR-5 ovarian; OVCAR-8 ovarian; SF-295 CNS; SK-MEL-28 melanoma; SW-620 colon; TK-10 renal.
Common to all, as to experiment: DTP human tumour cell line panel, 48 h

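Dose response: 5 concentrations. Exposure: 48 h. Format: 96-well plates. Endpoint: linear interpolation; highest concentration if not reached. TGI denotes the concentration required for complete inhibition of growth.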 Where a SMILES comes first, the peptide text is derived from it. [ ]: non-standard residue; d: D form. The star is where a group is joined. ξ: configuration not given here. X28 = COC1=CC(=O)N(C(=O)[C@@H](O*)C(C)C)[C@H]1Cc1ccccc1; X37 = O=C(OCc1ccccc1)[C@@H]1CCC[C@H]1N*; Fmoc = O=C(OCC1c2ccccc2-c2ccccc21)*; ξW = NC(Cc1c[nH]c2ccccc12)C(=O)O; NMeL = CN[C@@H](CC(C)C)C(=O)O; ξF = NC(Cc1ccccc1)C(=O)O; Hexanoyl = CCCCCC(=O)*; Boc = CC(C)(C)OC(=O)*; ξK = NCCCCC(N)C(=O)O; ξT = CC(O)C(N)C(=O)O; tBu = CC(C)(C)* Some results are limits rather than exact numbers.

A word on the TGI: it is the concentration at which net growth stops. The low end stands for more potent growth arrest, the high end for less potent growth arrest. Take `C[N+](C)(C)CCCCCc1c2nc(c(CCCCC[N+](C)(C)C)c3ccc([nH]3)c(CCCCC[N+](C)(C)C)c3ccc([nH]3)c(CCCCC[N+](C)(C)C)c3nc1C=C3)C=C2`: the total growth inhibition concentration (TGI) with HCT-15 colon, with HOP-92 NSCLC, with IGROV1 ovarian, in the assay with M14 melanoma, in the assay with NCI-H522 lung and in the assay on OVCAR-3 ovarian was > 100 µM in each case. In addition, the TGI in the assay on OVCAR-5 ovarian, with OVCAR-8 ovarian, with SF-295 CNS, in the assay on SK-MEL-28 melanoma, in the assay on SW-620 colon and in the assay on TK-10 renal was > 100 µM each time.

On to `COc1ccc(OC)c2c1C[C@@H]1C(C#N)N3[C@H](Cc4c(OC)ccc(OC)c4[C@@H]3C)C(=O)N1[C@H]2C` (stereo not given in full), for which the concentration for total growth inhibition (TGI) with HCT-15 colon turned out to be 11.2 µM; in the assay on HOP-92 NSCLC, 5.37 µM; in the assay on IGROV1 ovarian it was 16.8 µM; in the assay with M14 melanoma, 8.54 µM; in the assay on NCI-H522 lung it was 3.3 µM; in the assay on OVCAR-3 ovarian, 5.2 µM. The TGI in the assay with OVCAR-5 ovarian came to 23.7 µM; in the assay on OVCAR-8 ovarian it was 9.93 µM; in the assay on SF-295 CNS it was 35.7 µM; in the assay on SK-MEL-28 melanoma it was 10.1 µM; in the assay on SW-620 colon, 8.41 µM; in the assay with TK-10 renal it was 15.2 µM.

As for `CCCCCC(=O)N[C@H](C(=O)N[C@H](C(=O)N(C)[C@@H](CC(C)C)C(=O)N1CCC[C@H]1C(=O)N1CCC[C@H]1C(=O)O[C@H](C(=O)N1C(=O)C=C(OC)[C@@H]1Cc1ccccc1)C(C)C)C(C)C)C(C)C` (Hexanoyl-VV[NMeL]PP-X28), the TGI in the assay on HCT-15 colon was > 100 µM; with HOP-92 NSCLC, > 100 µM; in the assay on IGROV1 ovarian, > 100 µM; in the assay with M14 melanoma it was > 48.1 µM; in the assay with NCI-H522 lung, > 100 µM; in the assay with OVCAR-3 ovarian, > 100 µM. The concentration for total growth inhibition (TGI) in the assay with OVCAR-5 ovarian, in the assay on OVCAR-8 ovarian, with SF-295 CNS, in the assay with SK-MEL-28 melanoma, with SW-620 colon and with TK-10 renal was > 100 µM throughout.

Turning to `CC(=O)OC(C)(C)C1CCC(C)(C(O)COc2ccc(CCNC(=O)c3ccccc3)cc2)O1` (stereo not given), the TGI in the assay on HCT-15 colon, in the assay on HOP-92 NSCLC, in the assay on IGROV1 ovarian, with M14 melanoma, with NCI-H522 lung and in the assay with OVCAR-3 ovarian was > 100 µM throughout. The TGI in the assay with OVCAR-5 ovarian, in the assay on OVCAR-8 ovarian, in the assay on SF-295 CNS, in the assay with SK-MEL-28 melanoma, in the assay with SW-620 colon and in the assay with TK-10 renal was > 100 µM throughout.

For the compound `CC(OC(C)(C)C)C(NC(=O)C(CCCCNC(=O)OC(C)(C)C)NC(=O)C(Cc1c[nH]c2ccccc12)NC(=O)C(Cc1ccccc1)NC(=O)OCC1c2ccccc2-c2ccccc21)C(=O)NC(Cc1ccccc1)C(=O)N[C@@H]1CCC[C@H]1C(=O)OCc1ccccc1` (stereo not given in full) (Fmoc-[ξF][ξW][ξK](Boc)[ξT](tBu)[ξF]-X37), the TGI in the assay on HCT-15 colon, in the assay with HOP-92 NSCLC, in the assay with IGROV1 ovarian, with M14 melanoma, in the assay with NCI-H522 lung and in the assay with OVCAR-3 ovarian was > 100 µM throughout. The TGI in the assay with OVCAR-5 ovarian, in the assay on OVCAR-8 ovarian, in the assay with SF-295 CNS, in the assay on SK-MEL-28 melanoma, in the assay on SW-620 colon and with TK-10 renal was > 100 µM in each case.

For `CC(=O)OC1COC(N2C(=O)C(=O)c3cc(Br)c([N+](=O)[O-])cc32)C(OC(C)=O)C1OC(C)=O` (stereo not given), the concentration for total growth inhibition (TGI) was > 100 µM in the assay with HCT-15 colon; 93.3 µM with HOP-92 NSCLC; > 100 µM in the assay on IGROV1 ovarian; > 100 µM with M14 melanoma; > 100 µM in the assay on NCI-H522 lung; > 100 µM in the assay on OVCAR-3 ovarian. Further, the concentration for total growth inhibition (TGI) in the assay with OVCAR-5 ovarian, in the assay on OVCAR-8 ovarian, in the assay on SF-295 CNS, in the assay with SK-MEL-28 melanoma, with SW-620 colon and in the assay on TK-10 renal was > 100 µM each time.

In the case of `C#CCNC(Cc1ccccc1)C(=O)O` (stereo not given), the TGI with HCT-15 colon, in the assay on HOP-92 NSCLC, with IGROV1 ovarian, in the assay with M14 melanoma, with NCI-H522 lung and in the assay with OVCAR-3 ovarian was > 100 µM throughout. Besides, the total growth inhibition concentration (TGI) in the assay on OVCAR-5 ovarian, with OVCAR-8 ovarian, in the assay on SF-295 CNS, with SK-MEL-28 melanoma, in the assay on SW-620 colon and in the assay with TK-10 renal was > 100 µM each time.

Turning to `Cc1[nH]n(C(=O)c2ccccc2O)c(=O)c1/C=C1\C(=O)C=Cc2ccccc21`, the total growth inhibition concentration (TGI) in the assay on HCT-15 colon was > 100 µM; in the assay on HOP-92 NSCLC, 28.7 µM; in the assay with IGROV1 ovarian, 11.5 µM; in the assay on M14 melanoma, 4.63 µM; in the assay on NCI-H522 lung, 15.1 µM; in the assay with OVCAR-3 ovarian, 1.2 µM. The total growth inhibition concentration (TGI) in the assay with OVCAR-5 ovarian was > 64.9 µM; with OVCAR-8 ovarian, 28.5 µM; in the assay on SF-295 CNS it was 26.4 µM; in the assay on SK-MEL-28 melanoma it was 71.6 µM; in the assay on SW-620 colon it was > 100 µM; in the assay on TK-10 renal, > 100 µM.

Regarding `C=C1C(=O)OC2C(C)C3C=CC(=O)[C@@]3(C)C(OC(=O)/C(C)=C/C)C1[C@@H]2OC(C)=O` (stereo not given in full), the total growth inhibition concentration (TGI) in the assay with HCT-15 colon stood at 0.782 µM; in the assay with HOP-92 NSCLC, 1.56 µM; with IGROV1 ovarian it was 2.05 µM; in the assay on M14 melanoma it was 1.96 µM; with NCI-H522 lung, 0.334 µM; in the assay with OVCAR-3 ovarian, 0.744 µM. Besides, the concentration for total growth inhibition (TGI) in the assay with OVCAR-5 ovarian worked out at 3.32 µM; with OVCAR-8 ovarian, 0.628 µM; in the assay on SF-295 CNS, 2.81 µM; with SK-MEL-28 melanoma, 1.76 µM; with SW-620 colon, 0.694 µM; in the assay with TK-10 renal it was 1.57 µM.

Regarding `Cc1nc2c(=O)[nH]c(=O)nc-2n(CCO)c1C`, the concentration for total growth inhibition (TGI) in the assay with HCT-15 colon, in the assay on HOP-92 NSCLC, in the assay on IGROV1 ovarian, in the assay with M14 melanoma, in the assay on NCI-H522 lung and in the assay with OVCAR-3 ovarian was > 100 µM in each case. The TGI in the assay on OVCAR-5 ovarian, in the assay on OVCAR-8 ovarian, with SF-295 CNS, in the assay on SK-MEL-28 melanoma, in the assay with SW-620 colon and in the assay on TK-10 renal was > 100 µM each time.

Regarding `COC(=O)c1ccc(/C=C/C2=CC(=O)C=CC2=O)cc1`, the total growth inhibition concentration (TGI) with HCT-15 colon is 36.8 µM; with HOP-92 NSCLC, 32.7 µM; with IGROV1 ovarian, 39.1 µM; with M14 melanoma, > 67.2 µM; in the assay with NCI-H522 lung it was 3.6 µM; in the assay on OVCAR-3 ovarian, 38.4 µM. The total growth inhibition concentration (TGI) is 46 µM in the assay on OVCAR-5 ovarian; 61.5 µM with OVCAR-8 ovarian; 78.2 µM with SF-295 CNS; 50.8 µM with SK-MEL-28 melanoma; 48 µM in the assay on SW-620 colon; 44.4 µM in the assay on TK-10 renal.

`COC(=O)c1c(C)nc(C)c(N=O)c1-c1ccccc1C(F)(F)F`: the concentration for total growth inhibition (TGI) was 45.8 µM in the assay with HCT-15 colon; 34.8 µM with HOP-92 NSCLC; 33.9 µM with IGROV1 ovarian; 47.1 µM in the assay on M14 melanoma; 18.7 µM in the assay on NCI-H522 lung; 31.3 µM with OVCAR-3 ovarian. For the same compound, the concentration for total growth inhibition (TGI) in the assay on OVCAR-5 ovarian was 51.4 µM; with OVCAR-8 ovarian it was 35.6 µM; with SF-295 CNS, > 100 µM; with SK-MEL-28 melanoma it was 28.4 µM; in the assay with SW-620 colon it was 30.1 µM; in the assay with TK-10 renal, 30 µM.

In the case of `CC(=O)c1ccc2c(c1)CC1(C2)Cc2cc3c(cc2C1)C(=O)CC3` (stereo not given), the total growth inhibition concentration (TGI) in the assay on HCT-15 colon was determined as 13.2 µM; in the assay on HOP-92 NSCLC it was 32.8 µM; in the assay on IGROV1 ovarian it was 39.2 µM; with M14 melanoma, 17.6 µM; in the assay with NCI-H522 lung, 14.2 µM; with OVCAR-3 ovarian, 5.96 µM. In addition, the total growth inhibition concentration (TGI) in the assay on OVCAR-5 ovarian was > 100 µM; in the assay on OVCAR-8 ovarian it was 19.5 µM; in the assay with SF-295 CNS, 13 µM; in the assay with SK-MEL-28 melanoma it was 30.4 µM; with SW-620 colon, > 100 µM; in the assay on TK-10 renal, > 83 µM.

For `OC(Cn1cncn1)(Cn1cncn1)c1ccc(Cl)cc1Cl`, the total growth inhibition concentration (TGI) in the assay with HCT-15 colon, in the assay on HOP-92 NSCLC, in the assay on IGROV1 ovarian, in the assay on M14 melanoma, in the assay on NCI-H522 lung and with OVCAR-3 ovarian was > 100 µM in each case. Moreover, the TGI in the assay with OVCAR-5 ovarian, with OVCAR-8 ovarian, in the assay on SF-295 CNS, in the assay on SK-MEL-28 melanoma, in the assay with SW-620 colon and in the assay on TK-10 renal was > 100 µM throughout.

Take `CCC1=C(C)C2=NC1=CC1=NC(=C(CC)/C1=C/O)C=C1N=C3C(=C1C)C(=O)C(C(=O)OC)C3=C1NC(=C2)C(C)C1CCC(=O)OC` (stereo not given): the total growth inhibition concentration (TGI) in the assay on HCT-15 colon, in the assay on HOP-92 NSCLC, with IGROV1 ovarian, in the assay on M14 melanoma, with NCI-H522 lung and in the assay with OVCAR-3 ovarian was > 100 µM in each case. For the same compound, the TGI in the assay on OVCAR-5 ovarian, with OVCAR-8 ovarian, in the assay on SF-295 CNS, with SK-MEL-28 melanoma, with SW-620 colon and in the assay with TK-10 renal was > 100 µM in each case.

For the origin of these results see PubChem BioAssay (NCI).
